In US12385009B2, “Methods and compositions for generating oligodendrocyte progenitor cells” (Trailhead Biosystems Inc., priority 2021, dated 2025):
Entries after “also recorded” stand apart in the source; their conditions may differ.

What follows are compounds tested on human pluripotent stem cells (assay: HD-DoE #2: 13-factor experiment, differentiation toward anterior neuroectoderm (OTX2, FEZF2 expression)). Details: 13-factor model.
Format: cell-based
Description: (§1) This example utilizes a method of High-Dimensional Design of Experiments (HD-DoE), as previously described in Bukys et al. (2020) Iscience 23:101346. The method employs computerized design geometries to simultaneously test multiple process inputs and offers mathematical modeling of a deep effector/response space. The method allows for finding combinatorial signaling inputs that control a complex process, such as during cell differentiation. It allows testing of multiple plausible critical process parameters, as such parameters impact output responses, such as gene expression. Because gene expression provides hallmark features of the phenotype of, for example, a human cell, the method can be applied to identify, and understand, which signaling pathways control cell fate. In the current example, the HD-DOE method was applied with the intent to find conditions for induction of oligodendrocyte progenitor-expressed genes, directly from the pluripotent stem cell state.
(§2) Specifically, to develop a novel method to generate oligodendrocytes, the impact of agonists and antagonists of multiple signaling pathways (herein called effectors) were tested on expression of two sets of 53 pre-selected genes after a 3-day treatment. These effectors are small molecules that are commonly used during stepwise differentiation of stem cells to specific fates. Choice of the effectors were based on current literature on neural induction in anterior ectoderm and differentiation of stem cells to oligodendrocytes.
To further enhance the conditions for oligodendrocyte differentiation from pluripotency, we performed an additional HD-DoE experiment. We obtained additional gene regulatory models that were used for preparation of a differentiation protocol. The basis of this was a 13-factor HD-DoE experiment with focus on initiation of differentiation of cells toward anterior neuroectoderm. In this model, we focused on expression of FEZF2 and OTX2.

| Structure (SMILES) | effect on expression of FEZF2 (dynamic profiling analysis) | impact on expression level of OTX2 (dynamic profiling analysis) |
| --- | --- | --- |
| Oc1nc(-c2ccc(C(F)(F)F)cc2)nc2c1CSCC2 [XAV939] | significant positive effects | no negative impact |
| c1ccc2c(Oc3nc(Nc4ccc(N5CCOCC5)cc4)c4ncn(C5CCCCC5)c4n3)cccc2c1 [Purmorphamine] | significant positive effects | no negative impact |

Same assay, conditions: 13-factor model of high expression of OTX2

| Structure (SMILES) | contribution to expression of OTX2 (in words) |
| --- | --- |
| Cc1c[nH]c(-c2cnc(NCCNc3ccc(C#N)cn3)nc2-c2ccc(Cl)cc2Cl)n1 [CHIR99021] | positive contribution |
| c1ccc2c(-c3cnn4cc(-c5ccc(N6CCNCC6)cc5)cnc34)ccnc2c1 [LDN193189] | positive contribution |
| O=C(NOC[C@H](O)CO)c1ccc(F)c(F)c1Nc1ccc(I)cc1F [PD0325901] | positive contribution |
| COc1ccc2c(c1)c(C1=C(c3c[nH]c4ccccc34)C(=O)NC1=O)cn2CCCN(C)C [Go6983] | positive contribution |

What follows are compounds tested on human pluripotent stem cells (assay: HD-DoE #1: 8-factor experiment, gene expression after 3-day treatment with effectors). Details: 8-factor model.
Format: cell-based
Description: as §1, §2
To test the effectors, experiments with at least 8 factors were designed that can assess the response of cells to 48 or more different combinations of effectors in a range of concentrations. To analyze the models, we focused on expression of genes expressed during early development of anterior neuroectoderm and oligodendrocytes including NKX2-2, OLIG2, OLIG1, and PDGFRA. The impact of each effector on gene expression level is defined by a parameter called factor contribution that is calculated for each effector during the modeling.
This model tested 8 factors: PD0325901, MK2206, TTNPB, SC79, MHY1485, ZM336372, AGN193109 and AZD3147.

| Structure (SMILES) | effect on expression of targeted oligodendrocyte genes (NKX2-2, OLIG2) |
| --- | --- |
| NC1(c2ccc(-c3nc4ccn5c(=O)[nH]nc5c4cc3-c3ccccc3)cc2)CCC1 [MK2206] | negative effect |
| C/C(=C\c1ccc(C(=O)O)cc1)c1ccc2c(c1)C(C)(C)CCC2(C)C [TTNPB] | significant positive effect |
| O=C(NOC[C@H](O)CO)c1ccc(F)c(F)c1Nc1ccc(I)cc1F [PD0325901] | negatively impacting; also recorded: negative effect |
| Cc1ccc(NC(=O)c2cccc(N(C)C)c2)cc1NC(=O)c1ccc(O)cc1 [ZM336372] | negatively impacting |
| CCOC(=O)C1=C(N)Oc2ccc(Cl)cc2C1C(C#N)C(=O)OCC (centres unmarked) [SC79] | significant positive effect |
| O=[N+]([O-])c1ccc(Nc2nc(N3CCOCC3)nc(N3CCOCC3)n2)cc1 [MHY1485] | significant positive effect |
